The values that follow come from patent US20090105119A1, “ASPARAGINE-10-SUBSTITUTED NONADEPSIPEPTIDES” (priority 2006, published 2009).

*1 amine or outer side, *2 acyl side, *3 side chain or, on linkers, in order; H or OH if unused. Where a SMILES comes first, the peptide text is derived from it. Bridges are numbered along the chain shown (N, C = ends). Side-chain parts run from the residue outwards. [ ]: non-standard residue; d: D form. The star is where a group is joined. X4 = O=C(CNC(=O)[C@@H](O)[C@H](N[*:1])C(=O)[*:2])OCc1ccccc1; Phe(3R-OH) = O=C([C@@H](N[*:1])[C@H](O[*:3])c1ccccc1)[*:2]; X8 = O=C(NCCCN1CCOCC1)[C@@H](O)[C@H](N[*:1])C(=O)[*:2]; X6 = NC(=O)CNC(=O)[C@@H](O)[C@H](N[*:1])C(=O)[*:2]; X3 = O=C([C@@H](N[*:1])[C@H](O)C(=O)[*:3])[*:2]; X5 = NCCNC(=O)[C@@H](O)[C@H](N[*:1])C(=O)[*:2]; Asn(3S-OH) = NC(=O)[C@@H](O)[C@H](N)C(=O)O; Leu(3R-OH) = CC(C)[C@@H](O)[C@H](N)C(=O)O; Ethylenediamine = C(CN[*:2])N[*:1]; aThr = C[C@H](O)[C@H](N)C(=O)O; Cbz = O=C(OCc1ccccc1)*

Data set [1] in a line: Determination of the free fraction (fu) in plasma. In kind it is in vitro ADME, rat. Conditions: rat, plasma, pH 7.4. How it is done:
(§1) Principle of the Determination of the Free Fraction Via Transil:
(§2) The method described here for determining the free fraction (fu) of a test substance is divided into 2 parts:
(§3) a) Determination of the Transil®/buffer distribution ratio (MAbuffer) by incubating the test substance in a Transil®-buffer (pH 7.4) dispersion and subsequently determining the concentration in the dispersion and in the buffer supernatant.
(§4) b) Determination of the Transil®/plasma distribution ratio (MAplasma) by incubating the test substance in a Transil®-plasma dispersion and subsequently determining the concentration in the dispersion and in the plasma.
(§5) The quotient of the two distribution ratios yields fu.
(§6) In the case of highly protein-bound substances, the plasma is usually diluted with isotonic phosphate buffer (pH 7.4) and then suspended with Transil®. The determination of fu′ (free fraction in diluted plasma) in this diluted protein solution takes place in analogy to the determination of fu. The free fraction in undiluted plasma is calculated from fu′ and the dilution factor.
(§7) Concerning this method, compare also: Schuhmacher, Joachim; Kohlsdorfer, Christian; Buehner, Klaus; Brandenburger, Tim; Kruk, Renate, “High-throughput determination of the free fraction of drugs strongly bound to plasma proteins.” Journal of Pharmaceutical Sciences 2004, 93, 816-830.
(§8) Determination of the Membrane Affinity of a Test Substance after Distribution Between Transil® and Buffer (MAbuffer):
(§9) All incubations are carried out in suitable glass vessels, e.g. glass vials, ground-socket test tubes. In general the total volume is 0.5-5 ml, and the Transil® volume 10-100 μl. In cases where the membrane affinities are expected to be high, the Transil® dispersion can be diluted up to 20-fold with phosphate buffer of pH 7.4, e.g. Dulbecco's PBS. Phosphate buffer of pH 7.4 is provided in the incubation vessels, and the Transil® is pipetted in, after thorough mixing. The test substance is pipetted in at a concentration of, for example, 200 ng/mL, n=6. The proportion of organic solvent should be <2%. The mixtures are incubated at room temperature for 30 min, e.g. on a mini-shaker at an angle of about 45°, at about 400 rpm. In order to determine the 100% value at least one aliquot of, for example, 100 μl, is removed and the remaining mixture is centrifuged at about 1800 g for about 10 min. At least 2 aliquots (e.g. 100 μl) of the supernatant are removed from each sample for the determination of the concentration.
(§10) Determination of MAplasma in Undiluted or Diluted Plasma:
(§11) The total incubation volume and the added volume of Transil® depend on the expected free fraction. In general the total volume is 0.5-1 ml, and the Transil® volume is 10-100 μl. In cases where the free fractions are very low, the plasma of the species to be investigated is diluted, with isotonic buffer solution, pH 7.4, e.g. 10-400-fold, and the Transil® is then added. The subsequent procedure takes place as described above for the determination of the MAbuffer values. […]
(§12) The plasma of the species to be investigated is filtered through a semipermeable membrane. The substance concentration in the filtrate is measured and the free fraction fu is calculated therefrom. […] The substance concentration in the ultrafiltrate (Cu; unbound substance concentration) and in the plasma before centrifugation (C; total substance concentration) is measured. The free fraction is calculated by the formula: fu (%)=Cu/C*100.

Data set [2] can be described thus: Determination of the free fraction (fu) in plasma. In kind it is in vitro ADME. The following applies: human. As to the method:
as §1, §2, §3, §4, §5, §6, §7, §8, §9, §10, §11, §12

The next data set relates to E. faecalis ICB 27159. Format: cell-based, Enterococcus faecalis. Conditions: ICB 27159. As to the method:
(§13) Determination of the Minimum Inhibitory Concentration (MIC):
(§14) The MIC is determined in the liquid dilution test in accordance with the NCCLS guidelines. Overnight cultures of Staphylococcus aureus 133, Enterococcus faecalis 27159, E. faecium 4147 and Streptococcus pneumoniae G9a are incubated with the described test substances in a 1:2 dilution series. The MIC determination is carried out with a cell count of 10^5 microbes per ml in Isosensitest medium (Difco, Irvine/USA), with the exception of S. pneumoniae which is tested in BHI broth (Difco, Irvine/USA) with 10% bovine serum with a cell count of 10^6 microbes per ml. The cultures are incubated at 37° C. for 18-24 hours, S. pneumoniae in the presence of 10% CO2.
(§15) The MIC is defined as the lowest concentration of each substance at which no visible bacterial growth occurs any longer. The MIC values are reported in μg/ml.

The test system of data set [3] is Staphylococcus aureus 133. In kind it is cell-based. The following applies: 133. As to the method: as §13, §14, §15
In data set [4] the test system is Streptococcus pneumoniae G9a. In kind it is cell-based. The following applies: G9a. How it is done: as §13, §14, §15

As a reminder, the fraction unbound is free concentration divided by total concentration. Low readings indicate extensive binding, high ones weak binding. On to `CC[C@H](C)[C@@H]1NC(=O)[C@@H](CCCNC(=N)N)NC(=O)[C@H](CC(C)C)NC(=O)[C@H]([C@H](O)C(C)C)NC(=O)[C@@H](NC(=O)[C@H](CC(C)C)NC(=O)[C@H](N)CC(C)C)[C@@H](c2ccccc2)OC(=O)[C@H](CO)NC(=O)[C@H]([C@H](O)C(N)=O)NC(=O)CNC(=O)[C@H]([C@H](C)O)NC1=O` [1a (Lysobactin), D-Leucyl-N^1-{(3S,6S,12S,15S,18R,21S,24S,27S,28R)-6-[(1S)-2-amino-1-hydroxy-2-oxo-ethyl]-18-(3-{[amino(imino)methyl]amino}propyl)-12-[(1S)-1-hydroxyethyl]-3-(hydroxy-methyl)-24-[(1R)-1-hydroxy-2-methylpropyl]-21-isobutyl-15-[(1S)-1-methylpropyl]-2,5,8,11,14,17,20,23,26-nonaoxo-28-phenyl-1-oxa-4,7,10,13,16,19,22,25-octaazacyclo-octacosan-27-yl}-L-leucinamide Bistrifluoroacetate, reference compound] (H-[dL]L[Phe(3R-OH)][Leu(3R-OH)]L[dR]I[aThr]G[Asn(3S-OH)]S; ester 3-C), for which, in data set [1], the fraction unbound at 30 min, 200 ng/mL was found to be 0.0076. For the same compound, the free fraction (fraction unbound) at 30 min in data set [2] was found to be 0.0081.

`CC[C@H](C)[C@@H]1NC(=O)[C@@H](CCCNC(=N)N)NC(=O)[C@H](CC(C)C)NC(=O)[C@H]([C@H](O)C(C)C)NC(=O)[C@@H](NC(=O)[C@H](CC(C)C)NC(=O)[C@H](N)CC(C)C)[C@@H](c2ccccc2)OC(=O)[C@H](CO)NC(=O)[C@H]([C@H](O)C(=O)NCCCN2CCOCC2)NC(=O)CNC(=O)[C@H]([C@H](C)O)NC1=O` [Example 4, N^4.10-(3-Morpholin-4-yl-propyl)-D-leucyl-L-leucyl-[(3R)-3-hydroxy-L-phenylalanyl]-[(3R)-3-hydroxy-L-leucyl]-L-leucyl-D-arginyl-L-isoleucyl-L-allothreonylglycyl-[(3S)-3-hydroxy-L-asparaginyl]-L-serine C^1.11—O^3.3-lactone Tristrifluoroacetate] (H-[dL]L[Phe(3R-OH)][Leu(3R-OH)]L[dR]I[aThr]G[X8]S; ester 3-C) showed a free fraction (fraction unbound) at 30 min, 200 ng/mL in data set [1] of 0.068. The fraction unbound at 30 min in data set [2] came out at 0.024.

As for `CC[C@H](C)[C@@H]1NC(=O)[C@@H](CCCNC(=N)N)NC(=O)[C@H](CC(C)C)NC(=O)[C@H]([C@H](O)C(C)C)NC(=O)[C@@H](NC(=O)[C@H](CC(C)C)NC(=O)[C@H](N)CC(C)C)[C@@H](c2ccccc2)OC(=O)[C@H](CO)NC(=O)[C@H]([C@H](O)C(=O)NCC(=O)OCc2ccccc2)NC(=O)CNC(=O)[C@H]([C@H](C)O)NC1=O.O=C(O)C(F)(F)F.O=C(O)C(F)(F)F` [Example 8, N^4.10-(2-(Benzyloxy)-2-oxoethyl)-D-leucyl-L-leucyl-[(3R)-3-hydroxy-L-phenylalanyl]-[(3R)-3-hydroxy-L-leucyl]-L-leucyl-D-arginyl-L-isoleucyl-L-allothreonylglycyl-[(3S)-3-hydroxy-L-β-asparaginyl]-L-serine C^1.11—O^3.3-lactone Bistrifluoroacetate] (H-[dL]L[Phe(3R-OH)][Leu(3R-OH)]L[dR]I[aThr]G[X4]S; ester 3-C), the “MIC E. faecalis ICB 27159” value against E. faecalis ICB 27159 was determined as 16 µg/mL. Further, the “MIC S. aureus 133” value in data set [3] came out at 0.5 µg/mL. Also, the “MIC S. pneumoniae G9a” value in data set [4] was found to be 2 µg/mL.

For `CC[C@H](C)[C@@H]1NC(=O)[C@@H](CCCNC(=N)N)NC(=O)[C@H](CC(C)C)NC(=O)[C@H]([C@H](O)C(C)C)NC(=O)[C@@H](NC(=O)[C@H](CC(C)C)NC(=O)[C@H](N)CC(C)C)[C@@H](c2ccccc2)OC(=O)[C@H](CO)NC(=O)[C@H]([C@H](O)C(=O)NCCNC(=O)OCc2ccccc2)NC(=O)CNC(=O)[C@H]([C@H](C)O)NC1=O.O=C(O)C(F)(F)F.O=C(O)C(F)(F)F` [Example 9, N^4.10-(2-{[(Benzyloxy)carbonyl]amino}ethyl)-D-leucyl-L-leucyl-[(3R)-3-hydroxy-L-phenylalanyl]-[(3R)-3-hydroxy-L-leucyl]-L-leucyl-D-arginyl-L-isoleucyl-L-allothreon-ylglycyl-[(3S)-3-hydroxy-L-asparaginyl]-L-serine C^1.11—O^3.3-lactone Bistrifluoroacetate] (H-[dL]L[Phe(3R-OH)][Leu(3R-OH)]L[dR]I[aThr]G[X3]([Ethylenediamine-Cbz])S; ester 3-C), the “MIC E. faecalis ICB 27159” value against E. faecalis ICB 27159 stood at 16 µg/mL. In addition, the “MIC S. aureus 133” value in data set [3] stood at 0.5 µg/mL. In data set [4], the “MIC S. pneumoniae G9a” value came to 2 µg/mL.

Take `CC[C@H](C)[C@@H]1NC(=O)[C@@H](CCCNC(=N)N)NC(=O)[C@H](CC(C)C)NC(=O)[C@H]([C@H](O)C(C)C)NC(=O)[C@@H](NC(=O)[C@H](CC(C)C)NC(=O)[C@H](N)CC(C)C)[C@@H](c2ccccc2)OC(=O)[C@H](CO)NC(=O)[C@H]([C@H](O)C(=O)NCC(N)=O)NC(=O)CNC(=O)[C@H]([C@H](C)O)NC1=O.O=C(O)C(F)(F)F.O=C(O)C(F)(F)F` [Example 10, N^4.10-(2-Amino-2-oxoethyl)-D-leucyl-L-leucyl-[(3R)-3-hydroxy-L-phenylalanyl]-[(3R)-3-hydroxy-L-leucyl]-L-leucyl-D-arginyl-L-isoleucyl-L-allothreonylglycyl-[(3S)-3-hydroxy-L-asparaginyl]-L-serine C^1.11—O^3.3-lactone Bistrifluoroacetate] (H-[dL]L[Phe(3R-OH)][Leu(3R-OH)]L[dR]I[aThr]G[X6]S; ester 3-C): the “MIC E. faecalis ICB 27159” value in the data set with E. faecalis ICB 27159 turned out to be 2 µg/mL. Further, the “MIC S. aureus 133” value in data set [3] was 0.25 µg/mL. The “MIC S. pneumoniae G9a” value in data set [4] is 1 µg/mL.

Consider `CC[C@H](C)[C@@H]1NC(=O)[C@@H](CCCNC(=N)N)NC(=O)[C@H](CC(C)C)NC(=O)[C@H]([C@H](O)C(C)C)NC(=O)[C@@H](NC(=O)[C@H](CC(C)C)NC(=O)[C@H](N)CC(C)C)[C@@H](c2ccccc2)OC(=O)[C@H](CO)NC(=O)[C@H]([C@H](O)C(=O)NCCN)NC(=O)CNC(=O)[C@H]([C@H](C)O)NC1=O.O=C(O)C(F)(F)F.O=C(O)C(F)(F)F.O=C(O)C(F)(F)F` [Example 12, N^4.10-(2-Aminoethyl)-D-leucyl-L-leucyl-[(3R)-3-hydroxy-L-phenylalanyl]-[(3R)-3-hydroxy-L-leucyl]-L-leucyl-D-arginyl-L-isoleucyl-L-allothreonylglycyl-[(3S)-3-hydroxy-L-asparaginyl]-L-serine C^1.11—O^3.3-lactone Tristrifluoroacetate] (H-[dL]L[Phe(3R-OH)][Leu(3R-OH)]L[dR]I[aThr]G[X5]S; ester 3-C), for which the “MIC E. faecalis ICB 27159” value against E. faecalis ICB 27159 came out at 8 µg/mL. Also, the “MIC S. aureus 133” value in data set [3] came to 0.5 µg/mL. Further, the “MIC S. pneumoniae G9a” value in data set [4] was 2 µg/mL.
